One test relates to BEAS-2B. The test can be described thus: Antiproliferative activity against human BEAS-2B cells incubated for 48 hrs by Alamar blue staining based assay. On the technique in general: The colour change of resazurin is a common sign of viable cells or microbes.
A further test has as its target Pyruvate kinase PKM (Homo sapiens, UniProt P14618). The test can be described thus: Activation of recombinant human PKM2 using pyruvate as substrate measured for 20 mins in presence of beta-NADH by LDH-coupled assay.
A further test deals with A549. Description: Antiproliferative activity against human A549 cells incubated for 48 hrs by Alamar blue staining based assay. The settings on record: A549, 48 h.

Structures are written as SMILES.

Sequence of Pyruvate kinase PKM (P14618 whole entry): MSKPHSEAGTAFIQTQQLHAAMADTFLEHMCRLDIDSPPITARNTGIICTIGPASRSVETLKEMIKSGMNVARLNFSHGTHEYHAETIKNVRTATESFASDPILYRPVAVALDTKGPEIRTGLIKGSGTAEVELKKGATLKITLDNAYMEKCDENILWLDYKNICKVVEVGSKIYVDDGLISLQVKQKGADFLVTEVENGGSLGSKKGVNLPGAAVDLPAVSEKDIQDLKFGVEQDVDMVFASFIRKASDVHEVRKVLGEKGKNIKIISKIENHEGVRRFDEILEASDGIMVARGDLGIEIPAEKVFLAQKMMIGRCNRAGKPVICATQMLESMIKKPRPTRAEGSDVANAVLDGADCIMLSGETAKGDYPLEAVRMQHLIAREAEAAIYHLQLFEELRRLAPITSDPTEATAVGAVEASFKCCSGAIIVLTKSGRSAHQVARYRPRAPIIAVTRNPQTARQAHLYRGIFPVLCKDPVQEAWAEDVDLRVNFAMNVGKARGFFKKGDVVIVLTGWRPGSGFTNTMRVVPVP

Turning to `O=C(CN1CCN(S(=O)(=O)c2cc(F)ccc2F)CC1)c1cnc2ncccn12`, the IC50 with BEAS-2B stood at 26500 nM; in the test with A549 it was 1260 nM. For the same compound, the EC50 at Pyruvate kinase PKM stood at 648 nM.

In the case of `O=C(CN1CCN(S(=O)(=O)C2CC2)CC1)c1cnc2ncccn12`, the IC50 with BEAS-2B turned out to be 53400 nM; with A549 it was 1760 nM. In addition, on Pyruvate kinase PKM, the EC50 was determined as 92 nM.

Take `Nc1cccc(S(=O)(=O)N2CCCN(S(=O)(=O)c3ccc4c(c3)OCCO4)CC2)c1`: the IC50 turned out to be 35200 nM with BEAS-2B and 1460 nM with A549.

With `O=C(CN1CCN(S(=O)(=O)c2ccccc2)CC1)c1cnc2ccccn12`, the IC50 with BEAS-2B was found to be 44700 nM; in the test with A549, 1690 nM. Besides, the EC50 on Pyruvate kinase PKM stood at 141 nM.

With `COc1ccc(-c2ccc(S(=O)(=O)N3CCN(CC(=O)c4cnc5ncccn45)CC3)cc2)cc1`, the values for the IC50 with BEAS-2B and in the test on A549 were 9130 nM and 1600 nM, respectively. At Pyruvate kinase PKM, the EC50 was 435 nM.

`N#Cc1ccccc1S(=O)(=O)N1CCN(CC(=O)c2cnc3ccccn23)CC1`: the IC50 in the test with BEAS-2B was determined as 55700 nM; with A549, 1510 nM. On Pyruvate kinase PKM, the EC50 was 147 nM.

On to `O=C(CN1CCN(S(=O)(=O)C2CCCCC2)CC1)c1cnc2ccccn12`, for which the IC50 in the test on BEAS-2B is 60600 nM; in the test with A549, 1650 nM. The EC50 on Pyruvate kinase PKM turned out to be 889 nM.

As for `O=C(CN1CCN(S(=O)(=O)c2cccs2)CC1)c1cnc2ccccn12`, the IC50 with BEAS-2B turned out to be 30500 nM; with A549 it was 1140 nM. In addition, the concentration for a half-maximal effect (EC50) at Pyruvate kinase PKM came to 134 nM.

In the case of `O=C(CN1CCN(S(=O)(=O)c2ccc(F)cc2)CC1)c1cnc2ccccn12`, the IC50 with BEAS-2B worked out at 52200 nM; in the test with A549 it was 1680 nM. On Pyruvate kinase PKM, the 50% effective concentration (EC50) stood at 382 nM.

Regarding `O=C(CN1CCN(S(=O)(=O)c2cccc(Br)c2)CC1)c1cnc2ncccn12`, the IC50 with BEAS-2B turned out to be 39000 nM; in the test with A549 it was 1140 nM. Further, the EC50 at Pyruvate kinase PKM amounted to 634 nM.

For `O=C(CN1CCN(S(=O)(=O)c2ccc(F)cc2Cl)CC1)c1cnc2ccccn12`, the IC50 in the test with BEAS-2B was found to be 37800 nM; in the test with A549, 950 nM. The EC50 at Pyruvate kinase PKM amounted to 205 nM.

Consider `COc1ccc(S(=O)(=O)N2CCN(CC(=O)c3cnc4ccccn34)CC2)cc1`, for which the IC50 with BEAS-2B stood at 46000 nM; in the test with A549 it was 1830 nM. Besides, on Pyruvate kinase PKM, the EC50 came out at 42 nM.

On to `O=C(CN1CCN(S(=O)(=O)c2ccc(C(F)(F)F)cc2)CC1)c1cnc2ccccn12`, for which the IC50 with BEAS-2B was 61400 nM; with A549 it was 1300 nM. Also, the concentration for a half-maximal effect (EC50) at Pyruvate kinase PKM amounted to 550 nM.

Turning to `O=C(CN1CCN(S(=O)(=O)c2ccc(C(F)(F)F)cc2)CC1)c1cnc2ncccn12`, the IC50 with BEAS-2B came to 15900 nM; with A549, 1230 nM. For the same compound, on Pyruvate kinase PKM, the 50% effective concentration (EC50) is 211 nM.

For `O=C(CN1CCN(S(=O)(=O)c2ccc([N+](=O)[O-])cc2)CC1)c1cnc2ccccn12`, the IC50 was found to be 20100 nM in the test with BEAS-2B and 1460 nM in the test with A549. The EC50 at Pyruvate kinase PKM turned out to be 649 nM.

Consider `O=C(CN1CCN(S(=O)(=O)c2ccc(F)cc2Cl)CC1)c1cnc2ncccn12`, for which the IC50 with BEAS-2B turned out to be 16800 nM; in the test on A549, 1720 nM. The EC50 at Pyruvate kinase PKM is 612 nM.

Take `COc1ccc(Br)cc1S(=O)(=O)N1CCN(CC(=O)c2cnc3ccccn23)CC1`: the IC50 with BEAS-2B came out at 30900 nM; in the test with A549, 1440 nM. Also, the EC50 at Pyruvate kinase PKM is 329 nM.

For `Cc1cc(C)c(S(=O)(=O)N2CCN(CC(=O)c3cnc4ccccn34)CC2)c(C)c1`, the results for the IC50 in the test with BEAS-2B and with A549 were 11500 nM and 1680 nM, respectively. At Pyruvate kinase PKM, the concentration giving a half-maximal response (EC50) amounted to 181 nM.

In the case of `Cc1ccc(S(=O)(=O)N2CCN(CC(=O)c3cnc4ncccn34)CC2)cc1`, the IC50 in the test with BEAS-2B worked out at 39600 nM; in the test with A549, 1000 nM. In addition, the EC50 on Pyruvate kinase PKM amounted to 105 nM.

In the case of `COc1cccc2c1C(=O)c1c(O)c3c(c(O)c1C2=O)C[C@@](O)(C(=O)CO)C[C@@H]3O[C@H]1C[C@H](N)[C@H](O)[C@H](C)O1` [DOXORUBICIN], the IC50 in the test with BEAS-2B is 24700 nM; in the test with A549 it was 1640 nM.

As to `O=C(CN1CCN(S(=O)(=O)c2cccc(Br)c2)CC1)c1cnc2ccccn12`, the IC50 with BEAS-2B came out at 39900 nM; in the test with A549, 1670 nM. For the same compound, the EC50 on Pyruvate kinase PKM turned out to be 606 nM.

As a reminder, the IC50 is the midpoint of a concentration-inhibition curve. One may read the EC50 as the concentration needed to bring the measured effect to its halfway point.

The values above are taken from ChEMBL document CHEMBL6083227, “Novel sulfonamides unveiled as potent anti-lung cancer agents via tumor pyruvate kinase M2 activation” (RSC Med Chem, 2024).
